The test system of the assay is 186277-243-T-J2-PDC complex spheroid viability. Put plainly: Anticancer human tumor 186277-243-T-J2-PDC patient-derived colon adenocarcinoma cell line growth inhibition [POLQ]. The conditions noted are these: for viability, T/C: stronger effect = lower value. Here is the method:
Multicellular complex tumor spheroid response to Polymerase (POL) inhibitors (novobiocin, ART-558, RP6685) in combination with a variety of drugs and investigational agents in selected tumor cell lines
The POL inhibitors (novobiocin, ART-558, and RP6685) were evaluated both individually and in combination with standard of care and investigational anticancer small molecules within a complex spheroid model of solid tumors. . Complex spheroids include a stromal component modeled by human endothelial cells (HUVEC) and fibroblasts modeled by human mesenchymal stem cells (MSCs). The concentration ranges selected for each drug and investigational agent were based upon clinically achievable concentrations if the clinical Cmax of the agent was known.
Compounds. The drugs and investigational agents: novobiocin (NSC847541), ART-558 (NSC835418), RP-6685 (NSC848927), peposertib (NSC802822), ceralasertib (NSC780249), elimusertib (NSC800525), camonsertib (NSC841442), AZD-1390 (NSC803789), olaparib (NSC753686), talazoparib (NSC767125), rucaparib (NSC756644), sotorasib (NSC818433), MRTX-1133 (NSC836407), SN-38 (NSC673596), topotecan (NSC609699), epotoside (NSC141540), doxorubicin (NSC123127), gemcitabine (NSC613327), 5-fluorouracil (NSC19893), paclitaxel (NSC125973), vemurafenib (NSC761431), MSA-2 (NSC828583), SN-011 (NSC837082), adavosertib (NSC754352), prexasertib (NSC758257), carboplatin (NSC241240) and oxaliplatin (NSC266046), were obtained from the National Cancer Institute (NCI) Developmental Therapeutics Program Chemical Repository (21). The FDA-approved anticancer drug set is available from the Developmental Therapeutics Program at https://dtp.cancer.gov/organization/dscb/obtaining/. […] The stock solutions were prepared in dimethyl sulfoxide (DMSO, Sigma-Aldrich, St. Louis, MO, cat. D2650), except for the platinum compounds which were prepared in saline (Quality Biological, Gaithersburg, MD, cat. 114-055-101), at 800-fold the tested concentration and stored at -70 degrees C prior to their use. All drugs and investigational agents were tested over a range starting from a high concentration at or near the clinical Cmax and decreasing in half-log increments. If the clinical Cmax for an agent had not been determined, the highest concentration tested was 10 microM, except for SN-38, which was tested at a high concentration of 1 microM.
Cell Culture. All cells were maintained in an incubator at 37 degrees C and 5% CO2 with 95% humidity. The PDC lines were cultured according to standard operating procedures established by the NCI PDMR (https://pdmr.cancer.gov). Table 3 of the manuscript, lists the cell lines along with the number of the three cell types plated to form the mct-spheroids and media for tumor cell growth. After thawing, all PDC lines, except 997537-175-T-J1-PDC and 415267-285-R-J2-PDC, were cultured in Matrigel-coated flasks prepared with a working solution of 1X Ham's F-12 nutrient mix, without supplementation (Thermo Fisher Scientific, cat. 11765054), 100 U/mL penicillin-streptomycin (Thermo Fisher Scientific, cat. 15140122), and 2.5% Matrigel (Corning Inc., Corning, NY, cat. 354248) for the first three passages. The two PDC lines 997537-175-T-J1-PDC and 415267-285-R-J2-PDC were cultured on uncoated flasks. The 857933-349-R-J2-PDC line was cultured in 6C/Colon 1B media containing advanced DMEM/F-12 (Thermo Fisher Scientific, cat. 12634028), 10 mM HEPES (Thermo Fisher Scientific, cat. 15630080), 1X GlutaMAX supplement (Thermo Fisher Scientific, cat. 35050061), 0.1 mg/mL primocin (InvivoGen, San Diego, CA, cat. ant-pm-2), 10% defined fetal bovine serum, heat inactivated (HyClone Laboratories Inc., Logan, UT, cat. SH30070.03HI), 50% L-WRN conditioned media (ATCC, cat. CRL-3276), 1.25 mM N-Acetyl-L-cysteine (Sigma-Aldrich, cat. A9165), 10 mM nicotinamide (Sigma-Aldrich, cat. N0636), 1X B-27 supplement (Thermo Fisher Scientific, cat. 17504044), 1X N-2 supplement (Thermo Fisher Scientific, cat. […]

Where [1] appears, read: curve of first compound, second compound 0.0316 µM.
[2] abbreviates: curve of first compound, second compound 0.1 µM.
Where [3] appears, read: curve of first compound, second compound 0.316 µM.
The mark [4] stands for this setting: curve of first compound, second compound 1 µM.
Where [5] appears, read: curve of first compound, second compound 3.16 µM.
Setting [6] is: curve of first compound, second compound 10 µM.
Setting [7] is: second compound 0.0316 µM, first compound 0.0316 µM.
[8] abbreviates: second compound 0.0316 µM, first compound 0.1 µM.
[9] abbreviates: second compound 0.0316 µM, first compound 0.316 µM.
Setting [10] is: second compound 0.0316 µM, first compound 1 µM.
The mark [11] stands for this setting: second compound 0.0316 µM, first compound 3.16 µM.
[12] abbreviates: second compound 0.0316 µM, first compound 10 µM.
[13] abbreviates: second compound 0.1 µM, first compound 0.0316 µM.
The mark [14] stands for this setting: second compound 0.1 µM, first compound 0.1 µM.
Setting [15] is: second compound 0.1 µM, first compound 0.316 µM.
[16] abbreviates: second compound 0.1 µM, first compound 1 µM.
[17] abbreviates: second compound 0.1 µM, first compound 3.16 µM.
Setting [18] is: second compound 0.1 µM, first compound 10 µM.
Setting [19] is: second compound 0.316 µM, first compound 0.0316 µM.
[20] abbreviates: second compound 0.316 µM, first compound 0.1 µM.
Where [21] appears, read: second compound 0.316 µM, first compound 0.316 µM.
Where [22] appears, read: second compound 0.316 µM, first compound 1 µM.
Where [23] appears, read: second compound 0.316 µM, first compound 3.16 µM.
The mark [24] stands for this setting: second compound 0.316 µM, first compound 10 µM.
Setting [25] is: second compound 1 µM, first compound 0.0316 µM.
The mark [26] stands for this setting: second compound 1 µM, first compound 0.1 µM.
Where [27] appears, read: second compound 1 µM, first compound 0.316 µM.
Where [28] appears, read: second compound 1 µM, first compound 1 µM.
The mark [29] stands for this setting: second compound 1 µM, first compound 3.16 µM.
Where [30] appears, read: second compound 1 µM, first compound 10 µM.
Setting [31] is: second compound 3.16 µM, first compound 0.0316 µM.
The mark [32] stands for this setting: second compound 3.16 µM, first compound 0.1 µM.
The mark [33] stands for this setting: second compound 3.16 µM, first compound 0.316 µM.
[34] abbreviates: second compound 3.16 µM, first compound 1 µM.
[35] abbreviates: second compound 3.16 µM, first compound 3.16 µM.
Setting [36] is: second compound 3.16 µM, first compound 10 µM.
Where [37] appears, read: second compound 10 µM, first compound 0.0316 µM.
Setting [38] is: second compound 10 µM, first compound 0.1 µM.
The mark [39] stands for this setting: second compound 10 µM, first compound 0.316 µM.
The mark [40] stands for this setting: second compound 10 µM, first compound 1 µM.
The mark [41] stands for this setting: second compound 10 µM, first compound 3.16 µM.
The mark [42] stands for this setting: second compound 10 µM, first compound 10 µM.

Where “and” joins values, the source holds several entries; their conditions need not be identical. Equal entries are not always repeated.
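Also: spheroids exposed to compounds for seven days.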

Broadly, the IC50 is the concentration needed to halve the response being measured. For orientation: viability, T/C means the ratio of treated to control. On to `COc1ccc([C@@H](O)c2cc(-c3ncnc4cc(N5CCOCC5)ccc34)c(F)cc2Cl)nn1` + COC1C(OC(N)=O)C(O)C(Oc2ccc3c(O)c(NC(=O)c4ccc(O)c(CC=C(C)C)c4)c(=O)oc3c2C)OC1(C)C, for which the concentration for half-maximal inhibition (IC50) turned out to be 6300 nM under setting [1]; 5610 nM under setting [2]; 5550 nM under setting [3]; 6160 nM under setting [4]; 5340 nM under setting [5]; 5670 nM under setting [6]. Further, the viability, T/C under setting [7] is 102%; the viability, T/C under setting [8] is 97.2%; the viability, T/C under setting [9] is 109%; the viability, T/C under setting [10] was 95.2%; the viability, T/C under setting [11] is 79%; the viability, T/C under setting [12] was 30.7%. Also, the viability, T/C under setting [13] is 103%; the viability, T/C under setting [14] was 92.2%; the viability, T/C under setting [15] is 106%; the viability, T/C under setting [16] was 99.2%; the viability, T/C under setting [17] is 72.6%; the viability, T/C under setting [18] is 27.1%. For the same compound, the viability, T/C under setting [19] was 102%; the viability, T/C under setting [20] is 108%; the viability, T/C under setting [21] was 108%; the viability, T/C under setting [22] was 110%; the viability, T/C under setting [23] is 71.1%; the viability, T/C under setting [24] is 27.9%. For the same compound, the viability, T/C was 90.9% under setting [25]; 101% under setting [26]; 113% under setting [27]; 110% under setting [28]; 78% under setting [29]; 29.7% under setting [30]. For the same compound, the viability, T/C under setting [31] is 106%; the viability, T/C under setting [32] was 103%; the viability, T/C under setting [33] was 108%; the viability, T/C under setting [34] is 116%; the viability, T/C under setting [35] was 70%; the viability, T/C under setting [36] is 26.1%. The viability, T/C reads like this: under setting [37], 108%; under setting [38], 101%; under setting [39], 109%; under setting [40], 101%; under setting [41], 72.6%; under setting [42], 28%.

Consider `C#Cc1c(F)ccc2cc(O)cc(-c3ncc4c(N5CC6CCC(C5)N6)nc(OCC56CCCN5CC(F)C6)nc4c3F)c12` (stereo not given) + COC1C(OC(N)=O)C(O)C(Oc2ccc3c(O)c(NC(=O)c4ccc(O)c(CC=C(C)C)c4)c(=O)oc3c2C)OC1(C)C, for which the IC50 was 88.1 nM under setting [1]; 91.9 nM under setting [2]; 98 nM under setting [3]; 95.5 nM under setting [4]; 88.2 nM under setting [5]; 74.6 nM under setting [6]. For the same compound, the viability, T/C under setting [7] is 78.8%; the viability, T/C under setting [8] is 47.2%; the viability, T/C under setting [9] is 17.3%; the viability, T/C under setting [10] was 13.3%; the viability, T/C under setting [11] is 5.89%; the viability, T/C under setting [12] was 3.8%. Besides, the viability, T/C was 73.6% under setting [13]; 48.1% under setting [14]; 24.4% under setting [15]; 10.3% under setting [16]; 8.42% under setting [17]; 3.79% under setting [18]. In addition, the viability, T/C is, setting by setting: under setting [19], 87.3%; under setting [20], 49.5%; under setting [21], 21.1%; under setting [22], 9.93%; under setting [23], 5.5%; under setting [24], 3.94%. Besides, the viability, T/C is 92.4% under setting [25]; 48.4% under setting [26]; 15.6% under setting [27]; 8.5% under setting [28]; 5.97% under setting [29]; 3.63% under setting [30]. Moreover, the viability, T/C was 73.6% under setting [31]; 47.1% under setting [32]; 19.5% under setting [33]; 7.53% under setting [34]; 5.69% under setting [35]; 3.42% under setting [36]. Also, the viability, T/C reads like this: under setting [37], 74.3%; under setting [38], 42%; under setting [39], 18%; under setting [40], 9.65%; under setting [41], 8.31%; under setting [42], 3.67%.

In the case of `CCc1cc2c(N3CCc4c(cc(Cn5ccnc5)cc4-c4cn(C)nc4C(F)(F)F)C3=O)cc(C)nc2c(OC)n1`, the viability, T/C is 100% and 88.7% and 82.3% (compound 0.0316 µM); 110% and 93% and 96.3% (compound 0.1 µM); 101% and 96.8% and 86.6% (compound 0.316 µM); 104% and 106% and 86.8% (compound 1 µM); 86% and 109% and 103% (compound 3.16 µM); 76.3% and 99.6% and 88.1% (compound 10 µM). Further, the IC50 (curve of compound) is more than 10000 nM.

Regarding `CC1COCCN1c1cc(C2(O)CC3CCC(C2)O3)c2cnn(-c3ccn[nH]3)c2n1` (stereo not given), the viability, T/C runs as follows: (compound 0.0316 µM) 62.7% and 62.5% and 102%; (compound 0.1 µM) 11% and 9.46% and 22.4%; (compound 0.316 µM) 5.2% and 4.15% and 9.01%; (compound 1 µM) 4.03% and 3.64% and 7.13%; (compound 3.16 µM) 4.12% and 3.11% and 9.4%; (compound 10 µM) 4.18% and 3.19% and 7.62%. The 50% inhibitory concentration (IC50) (curve of compound) was 41.9 nM and 41.4 nM and 67.2 nM.

For `COc1cc2cc(C(=O)CCC(=O)O)sc2cc1OC`, the viability, T/C by setting is: (compound 0.0316 µM) 92.9% and 94% and 94.8%; (compound 0.1 µM) 92.5% and 101% and 99.4%; (compound 0.316 µM) 100% and 88% and 107%; (compound 1 µM) 111% and 86% and 87.3%; (compound 3.16 µM) 94.3% and 96.3% and 101%; (compound 10 µM) 94.8% and 95.2% and 101%. For the same compound, the half-inhibitory concentration (IC50) (curve of compound) is more than 10000 nM.

The values are drawn from PubChem BioAssay AID1963854 (Molecular Pharmacology Branch, DTP, NCI, 2024).
